Data reported in article PMC7816042, “Insights into the Structure-Activity Relationship of Glycosides as Positive Allosteric Modulators Acting on P2X7 Receptors” (Molecular Pharmacology, 2021).

Assays:
THP-1 cells = experiment: Cell viability assay (resazurin/Alamar blue) in THP-1 cells; format: cell-based, human; settings: 500 µM ATP
Method: (§1) HEK-hP2X7 or THP-1 cells were seeded at 5 × 10^3 cells per well in a volume of 100 μl for 24 hours in 96-well plates (Nunclon Edge plates, catalog number 167425; Thermo Scientific). Cells were plated in DMEM:F12 medium or RPMI 1640 medium containing 1% FBS and penicillin/streptomycin for 24 hours in a humidified incubator at 37°C with a constant supply of 5% CO2. Edge wells of the plates were filled with autoclaved distilled water to prevent evaporation of media from wells containing cells. The compounds and ATP were made at 2× final concentration in 1% FBS DMEM:F12 and 100 μl added to the cells for 24 hours. After incubation, resazurin sodium salt (CAS 62758-13-8; Sigma Aldrich) at 0.1 mg/ml in sterile PBS was added to the plate (20 into 200 µl culture medium per well). Cells were incubated for a further 2 hours in a humidified incubator at 37°C with a supply of 5% CO2. A Flexstation 3 microplate reader was used to acquire data. Endpoint fluorescence data were measured using 570 nm excitation wavelength, 600 nm emission wavelength (cutoff at 590 nm), and three reads per well (PMT low). Data were analyzed by performing background correction through subtracting blank medium readings (without cells) from all samples and then normalizing each sample to medium treated cells (control treatment, 100%) as percentage of control.
Results are expressed as means ± S.D. from the indicated number of experiments. For YO-PRO-1 dye uptake and intracellular calcium experiments, each independent experiment used triplicate wells, and the means of the replicates were collated and plotted. Technical replicates were used to ensure reliability of fluorescence values. Cell viability data were normalized to the vehicle control for each experiment after background correction had been performed. […] These values were calculated from the collated data for each compound from three independent experiments. Statistical differences were determined by analysis of the data by one-way ANOVA followed by Dunnett’s multiple comparison test or Sidak’s multiple comparison test using GraphPad Prism version 7. […]

human P2X7 [1] = molecular target: T1, human P2X7 (Homo sapiens, UniProt Q99572); experiment: YO-PRO-1 dye uptake assay in HEK-hP2X7 cells; format: cell-based; settings: for Effect of AZ10606120 pretreatment on response to ATP + glycoside (P2X7 dependence): 10 µM AZ10606120 pretreatment
T1 construct: expressed in transfected cells
T1 sequence (Q99572 1-595): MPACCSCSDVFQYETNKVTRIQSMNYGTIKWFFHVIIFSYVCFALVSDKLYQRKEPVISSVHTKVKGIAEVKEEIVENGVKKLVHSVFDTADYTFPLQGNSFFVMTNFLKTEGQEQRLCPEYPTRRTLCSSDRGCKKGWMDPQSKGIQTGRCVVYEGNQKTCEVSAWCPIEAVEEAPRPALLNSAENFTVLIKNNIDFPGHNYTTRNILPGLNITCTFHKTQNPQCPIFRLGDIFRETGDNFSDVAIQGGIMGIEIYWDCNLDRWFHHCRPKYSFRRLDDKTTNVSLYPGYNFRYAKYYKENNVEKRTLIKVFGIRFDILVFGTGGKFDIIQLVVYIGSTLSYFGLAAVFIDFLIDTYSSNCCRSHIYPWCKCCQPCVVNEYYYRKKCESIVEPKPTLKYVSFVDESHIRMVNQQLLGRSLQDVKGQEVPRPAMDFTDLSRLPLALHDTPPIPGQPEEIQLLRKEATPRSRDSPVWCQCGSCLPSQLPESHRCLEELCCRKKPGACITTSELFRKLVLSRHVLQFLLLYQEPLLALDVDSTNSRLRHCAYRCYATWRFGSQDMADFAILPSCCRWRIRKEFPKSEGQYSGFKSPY
Method: ATP-induced dye uptake experiments were performed as described previously ([Bidula et al., 2019b]). Briefly, HEK-hP2X7 cells were plated at 2 × 10^4 cells per well (100 μl per well) in complete medium and left overnight to attach to poly-D-lysine–coated 96-well plates. YO-PRO-1 iodide was prepared in a low divalent buffered solution ([…], 2 mM KCl, 13 mM D-glucose, 10 mM HEPES, 0.2 mM CaCl2 pH 7.3) to a final concentration of 2 μM. Medium was removed from the plate using a manual multichannel pipette and YO-PRO-1 containing buffer applied to wells (180 μl per well). […] A Flexstation 3 plate reader (Molecular Devices, Sunnyvale, CA) was used to record YO-PRO-1 fluorescence in HEK-hP2X7 for 300 seconds after the addition of ATP (at 10× final concentration) with/without ginsenoside compounds or vehicle (DMSO). Plates were allowed to warm up to 37°C for 10 minutes before initiating the recording. Baseline recordings were made for 40 seconds before compound addition using the Flexstation 3 fluidics system. YO-PRO-1 fluorescence was measured at 520 nm after excitation at 490 nm (auto cutoff at 495 nm), and the sample interval was 3.5 seconds. Flexstation settings were photomultiplier tube (PMT) medium, six reads per well, pipette height 170, and a rate of injection of 3. Data were acquired using Softmax Pro version 5.4 (Molecular Devices). To analyze the data, area under the dye uptake curve was calculated in Softmax Pro version 5 using zero baseline data with a lag time of 50 seconds (50–300 seconds).
(§2) Results are expressed as means ± S.D. from the indicated number of experiments. For YO-PRO-1 dye uptake and intracellular calcium experiments, each independent experiment used triplicate wells, and the means of the replicates were collated and plotted. Technical replicates were used to ensure reliability of fluorescence values. […] Dose-response curves were plotted by a nonlinear regression fit with variable slope using GraphPad Prism software version 7. Half-maximal responses are expressed as EC50 values with 95% confidence intervals. These values were calculated from the collated data for each compound from three independent experiments. Statistical differences were determined by analysis of the data by one-way ANOVA followed by Dunnett’s multiple comparison test or Sidak’s multiple comparison test using GraphPad Prism version 7. P < 0.05 was the accepted minimum level of significance.

HEK-hP2X7 cells = experiment: Cell viability assay (resazurin/Alamar blue) in HEK-hP2X7 cells; format: cell-based, human; settings: 24 hours
Method: as §1
Results are expressed as means ± S.D. from the indicated number of experiments. For YO-PRO-1 dye uptake and intracellular calcium experiments, each independent experiment used triplicate wells, and the means of the replicates were collated and plotted. Technical replicates were used to ensure reliability of fluorescence values. Cell viability data were normalized to the vehicle control for each experiment after background correction had been performed. Dose-response curves were plotted by a nonlinear regression fit with variable slope using GraphPad Prism software version 7. Half-maximal responses are expressed as EC50 values with 95% confidence intervals. These values were calculated from the collated data for each compound from three independent experiments. Statistical differences were determined by analysis of the data by one-way ANOVA followed by Dunnett’s multiple comparison test or Sidak’s multiple comparison test using GraphPad Prism version 7. P < 0.05 was the accepted minimum level of significance.

human P2X7 [2] = molecular target: T1, human P2X7; set-up: method as in Helliwell et al., 2015; settings: ref Helliwell et al., 2015; cited from earlier work
[3] = molecular target: T2, endogenous P2X7 in THP-1 cells (Homo sapiens, UniProt Q99572); experiment: Fura-2 calcium measurements in THP-1 monocytes; format: cell-based; settings: 500 µM ATP co-applied with 10 µM glycoside
T2 sequence (Q99572 1-394 limits assumed): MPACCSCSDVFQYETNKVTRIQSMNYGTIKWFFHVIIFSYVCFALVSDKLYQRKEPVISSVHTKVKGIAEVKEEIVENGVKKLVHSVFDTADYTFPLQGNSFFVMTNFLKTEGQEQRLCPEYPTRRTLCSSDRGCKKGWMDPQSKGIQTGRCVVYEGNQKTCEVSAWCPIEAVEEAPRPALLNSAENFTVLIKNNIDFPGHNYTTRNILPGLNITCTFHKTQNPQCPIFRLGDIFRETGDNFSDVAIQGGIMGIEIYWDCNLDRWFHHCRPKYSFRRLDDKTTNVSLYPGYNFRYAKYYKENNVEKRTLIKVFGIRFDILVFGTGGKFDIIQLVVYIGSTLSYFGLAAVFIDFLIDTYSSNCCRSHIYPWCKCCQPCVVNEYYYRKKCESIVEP
Method: THP-1 cells were pelleted by centrifugation (300g, 5 minute), washed, and resuspended in Hanks’ balanced salt solution buffer containing 2 μM fura-2 AM (HelloBio) and 250 μM (±)-sulfinpyrazone. Cells were loaded for 1 hour in a waterbath at 37°C while shielded from light with foil. Loaded cells were washed once with 5 ml Hanks’ balanced salt solution to remove excess fura-2 AM dye. THP-1 cells were then resuspended, counted, and plated at 2 × 10^5 cells per well in a standard clear 96-well plate (NUNC 167008; Thermo Scientific) in low divalent assay buffer without Mg^2+ (145 mM NaCl, 2 mM KCl and 2 mM CaCl2, 13 mM glucose, 10 mM HEPES, pH 7.3) containing 250 μM (±)-sulfinpyrazone. The 10× concentration of agonist (ATP) was prepared in the same assay buffer. ATP was injected automatically into wells at 30 seconds in a Flexstation 3 microplate reader. Ratiometric data were acquired using 340 and 380 nm for excitation wavelengths, 520 nm as the emission wavelength, and six reads per well (PMT medium). Area under the curve was calculated using standard zero baseline normalization with a lag time 0–300 seconds using SoftMax Pro version 5.4 software.
as §2

[4] = system: nontransfected HEK-293 cells; experiment: YO-PRO-1 dye uptake in parental nontransfected HEK-293 cells; format: cell-based, human; settings: drug alone

SMILES: Nc1ncnc2c1ncn2[C@@H]1O[C@H](COP(=O)(O)OP(=O)(O)OP(=O)(O)O)[C@@H](O)[C@H]1O [ATP, reference compound]
- Cell viability after ATP (THP-1 cells; 24 hours): 73.3% ± 14.4%
- EC50 (human P2X7 [1]; average, n = 5 experiments, HEK-hP2X7, read-out: EC50 for ATP + vehicle (DMSO)): 219 µM

SMILES: Cl.Cl.O=C(CC12CC3CC(CC(C3)C1)C2)Nc1cccc2nc(NCCNCCO)ccc12 [AZ10606120, reference compound]
- Antagonist effect on ATP-induced loss of viability (THP-1 cells): lack of effect
- Antagonist effect on loss of viability by ATP + ginsenoside-F2 or 20(S)-Rg3 (HEK-hP2X7 cells; AZ10606120 pretreatment): prevented

SMILES: CC(C)=CCCC(C)(OC1OC(CO)C(O)C(O)C1O)C1CCC2(C)C1C(O)CC1C3(C)CCC(O)C(C)(C)C3CCC12C (stereo not shown) [Ginsenoside-CK]
- PAM activity at human P2X7 (human P2X7 [2]): highest activity
- Enhancement of ATP-induced cell death (THP-1 cells; 24 hours): could significantly enhance this ATP-induced cell death
- Effect on ATP-induced calcium response [3]: increased the peak response and the sustained elevation in [Ca^2+]i
- Effect of AZ10606120 pretreatment on response to ATP + glycoside (P2X7 dependence) (human P2X7 [1]): abolished
- PAM effect on ATP dose-response curve (human P2X7 [1]; 10 µM glycoside, HEK-hP2X7, result in words): mixed type I/II effects
- Maximum response (fold increase) (human P2X7 [1]; maximum response defined at 1 mM ATP, 10 µM glycoside): 2.4–4.4 fold
- Cell viability in combination with ATP (HEK-hP2X7 cells): very effective at enhancing cell death

SMILES: C[C@H]1O[C@@H](O[C@H]2CC[C@@]3(C)[C@@H](CC[C@]4(C)[C@@H]3C=C[C@]35OC[C@@]6(CCC(C)(C)C[C@H]63)[C@@H](O)C[C@]54C)[C@]2(C)CO)[C@H](O)[C@@H](O[C@@H]2O[C@H](CO)[C@@H](O)[C@H](O)[C@H]2O)[C@H]1O [Saikosaponin A, saikosaponin A]
- YO-PRO-1 uptake in nontransfected HEK-293 cells (no P2X7) [4]: could induce YO-PRO-1 uptake
- Effect of AZ10606120 pretreatment on response to ATP + glycoside (P2X7 dependence) (human P2X7 [1]): unaffected by AZ10606120 pretreatment
- ATP-induced YO-PRO-1 response in fixed-concentration screen (human P2X7 [1]; 200 µM ATP, 10 µM glycoside, compared with ATP + DMSO): large increase
- Toxic effect on cells (human P2X7 [1]; YO-PRO-1 uptake without ATP or without P2X7): toxic effect on the cells
- YO-PRO-1 uptake in HEK-hP2X7 cells in the absence of ATP (human P2X7 [1]; drug alone): could induce YO-PRO-1 uptake
